Measured values reported in US9632088B2, “Methods and compositions for gamma-secretase assay” (MEMORIAL SLOAN-KETTERING CANCER CENTER, priority 2010, dated 2017).

How the values were obtained:
γ-secretase = biological target: T1, γ-secretase (Homo sapiens, UniProt P49768); assay: Cell-based Notch cleavage assay, immunostaining with SM320, HEK293 cells transfected with N1-ΔE; conditions: 1 μM inhibitor, 48 hours
T1 construct: endogenous in cells; host or cells: HEK293 cells transiently transfected with myc-tagged N1-ΔE (substrate only)
Procedure: HEK293 cells were seeded in a 4-well chamber slide (Lab-tek) and transfected with N1-ΔE as in the preceding paragraph, using Fugene 6 transfection reagents (Roche Applied Science, Mannheim, Germany). Transfected cells were then treated with either DMSO at a 1% final concentration or 1 μM Compound E.
After 48 hours of treatment, the cells were washed with PBS, fixed with cold methanol and permeabilized with 0.25% Tween-20. SM320 and anti-myc antibodies were added to detect NICD and full length N1-ΔE, respectively. Alexa Fluor-488 (Invitrogen, San Diego, Calif.) conjugated anti-rabbit and Alexa Fluor-594 (Invitrogen) conjugated anti-mouse antibodies were used as corresponding secondary antibodies. 4′,6-diamidino-2-phenylindole (DAPI) was used to stain cell nuclei. Finally, fluorescent images were captured with a Leica TCS Sp2 AOBS laser scanning confocal microscope (Memorial Sloan-Kettering Cancer Center Molecular Cytology Core Facility). Alternatively, REK 293 cells overexpressing N1-ΔE were treated with DMSO or Compound E, and were then collected through centrifugation and embedded in paraffin. The cell pellets were sliced and mounted on glass slides. […]
SM320 was further characterized using immunostaining analysis. […] Using confocal microscopy, it was shown that N1-ΔE protein, as detected by anti-myc antibody, is expressed in cells transfected with the construct (FIG. 6B, panel 2). […]

M146L PS1 γ-secretase = biological target: T2, M146L PS1 γ-secretase (Homo sapiens, UniProt P49768, M146L); assay: In vitro N1-Sb1 γ-secretase assay, membrane of N2a cells expressing M146L PS1; assay type: biochemical, murine; conditions: M146L PS1; read-out: IC50 of γ-secretase inhibition (N1-Sb1 cleavage)
T2 construct: total membrane
Procedure: (§1) HeLa membrane fraction was isolated from HeLa-S3 cells (National Cell Culture Center). The cell pellet was resuspended in Buffer A (50 mM MES, 150 mM KCl, 5 mM CaCl2, 5 mM MgCl2) and lysed by passage through a French Press. N2a cells (murine neuroblastoma cells) over-expressing wild-type PS1, or mutants M146L or E280A, were obtained from Dr. Sangram Sisodia (University of Chicago, Chicago, Ill.). These cells were maintained in 50% Dulbecco's modified Eagle's medium high glucose, 50% Opti-Mem Reduced Serum Media, and 10% fetal calf serum. Cultured cells were pelleted by centrifugation and resuspended in hypotonic buffer (40 mM Tris, pH 7.4, 10 mM NaCl, 1 mM EDTA, and 0.5 mM DTT) for 20 minutes before being lysed with a dounce homogenizer. Nuclear debris from the HeLa and N2a cells were pelleted at 3000 rpm for 30 minutes. The resulting supernatants were ultracentrifuged at 100,000×g for 1 hour. The pellet that contained total cell membrane was resuspended in Buffer A. Mouse brains overexpressing knock-in wild type or M146V PS1 (gift from Dr. Hui Zheng, Amylin Pharmaceuticals, San Diego, Calif.) were homogenized with dounce homogenizer. The cell lysate was centrifuged at 3000 rpm for 30 minutes. The supernatants were ultracentrifuged at 100,000×g for 1 hour. Protein concentration was determined with the DC Protein Assay Kit according to the manufacturer's instructions (Bio-Rad, Hercules, Calif.).
(§2) An in vitro γ-secretase assay using a novel recombinant APP-derived substrate (termed “Sb4”) is disclosed in co-pending application U.S. Ser. No. 12/776,141. In the present assay based on a Notch-derived substrate, N1-Sb1 was incubated with the cell membrane fraction, prepared as described above, in the presence of 0.25% CHAPSO and 1×PIPES buffer (50 mM PIPES, pH 7.0, 150 mM KCl, 5 mM CaCl2, 5 mM MgCl2. The reaction was incubated at 37° C. for 2 hours. The Perkin Elmer AlphaScreen™ detection system was employed to assay for Notch cleavage. AlphaScreen (PerkinElmer Life and Analytical Sciences, Shelton, Conn.) is a bead based non-radioactive Amplified Luminescent Proximity Homogeneous Assay (ALPHA). When a biological interaction brings the beads together, a cascade of chemical reactions acts to produce a greatly amplified signal. Specifically, upon laser excitation, a photosensitizer in the “Donor” bead converts ambient (triplet) oxygen to the more reactive singlet state. The singlet state oxygen molecules diffuse into the solvent, and may react with a thioxene derivative in the Acceptor bead if nearby, generating chemiluminescence at 370 nm that further activates fluorophores contained in the same bead. The fluorophores subsequently emit light at 520-620 nm. In the absence of a specific biological interaction, the singlet state oxygen molecules produced by the donor bead go undetected without the close proximity of the acceptor bead. As a result no fluorescence signal at 520-620 nm is produced.
(§3) In the present system, antibody SM320, Protein A-conjugated acceptor beads, and Streptavidin-conjugated donor beads (PerkinElmer) were added to the reaction at a final concentration of 0.2 μg/ml, 2.5 μg/ml and 5 μg/ml, respectively (diagrammed in FIG. 5A). The reaction was incubated in the dark at room-temperature for 4 hours. The ALPHA signal was detected using the Envision plate reader (Perkin Elmer). The reactions were excited at 680 nm and signal was detected at 615 nm.
(§4) The effects of PS1 FAD mutations on Notch cleavage were determined using the new γ-secretase assay described in Example 2. The activities of two PS1 FAD mutations—PS1 M146L and E280A were compared against wild-type PS1 (WT), which has been previously studied (25). Total membrane was isolated from N2a cells that stably express WT, M146L, or E280A mutants. N1-Sb1 was incubated with these membranes and the resulting cN1-Sb1 was detected with SM320. […] The M146L and E280A mutants had 40% and 14% activity remaining, respectively, compared to the activity of the wild type (FIG. 7A). […]

[1] = biological target: T3, wild-type PS1 γ-secretase (Homo sapiens, UniProt P49768); assay: In vitro N1-Sb1 γ-secretase assay, membrane of N2a cells expressing wild-type PS1; assay type: biochemical, murine; conditions: wild-type PS1; read-out: IC50 of γ-secretase inhibition (N1-Sb1 cleavage)
T3 construct: total membrane
Procedure: as §1, §2, §3, §4

Row | Compound | detection of NICD by SM320 immunostaining (γ-secretase) | IC50 (M146L PS1 γ-secretase) [nM] | IC50 [1] [nM]
1 | CC(NC(=O)Cc1cc(F)cc(F)c1)C(=O)NC1N=C(c2ccccc2)c2ccccc2N(C)C1=O (stereo not drawn) [Compound E] | not in cells treated with Compound E | 0.76 | 0.78
2 | CC(C)C[C@H](NC(=O)[C@H](Cc1ccccc1)C[C@@H](O)[C@H](Cc1ccccc1)NC(=O)OC(C)(C)C)C(=O)N[C@@H](Cc1ccccc1)C(N)=O [L458] | No spots of any color are observed | 0.45 | 0.5
